Measurements from patent US10556905B2, “Processes for preparing a diazabicyclooctane compound” (priority 2012, dated 2020).
Converted amounts (≈) assume the structure as drawn.

Assays:
[1] = test system: extensively drug-resistant tuberculosis (XDR-TB); experiment: Anti-tubercle bacillus activity, liquid medium dilution MIC; format: cell-based; settings: for MIC: Bacillus, 168 h, read-out: antibacterial activity (MIC) of β-lactam agent alone
[2] = test system: multi-drug resistant tuberculosis (MDR-TB); experiment: as above; format: cell-based; settings: for MIC: Bacillus, 168 h, read-out: antibacterial activity (MIC) of β-lactam agent alone

SMILES	MIC [1]	MIC [2]	further results
CC1(C)S[C@@H]2[C@H](NC(=O)[C@H](N)c3ccccc3)C(=O)N2[C@H]1C(=O)O [ABPC, ampicillin, reference compound]	32 µg/mL (≈ 91.6 µM)	128 µg/mL (≈ 366 µM)	
CC1(C)S[C@@H]2[C@H](NC(=O)[C@H](N)c3ccc(O)cc3)C(=O)N2[C@H]1C(=O)O [AMPC, amoxicillin, reference compound]	64 µg/mL (≈ 175 µM)	128 µg/mL (≈ 350 µM)	
C[C@@H](O)[C@H]1C(=O)N2C(C(=O)[O-])=C(SC3Cn4cnc[n+]4C3)[C@H](C)[C@H]12 (some centres unmarked) [BIPM, biapenem, reference compound]	2 µg/mL (≈ 5.71 µM)	16 µg/mL (≈ 45.7 µM)	
NCCONC(=O)[C@@H]1CC[C@@H]2CN1C(=O)N2OS(=O)(=O)O [Example 59, (2S,5R)—N-(2-Aminoethoxy)-7-oxo-6-(sulfooxy)-1,6-diazabicyclo[3.2.1]octane-2-carboxamide]			antibacterial activity (MIC) of ABPC in combinatorial use ([1]; ABPC + 4 μg/mL compound, XDR-TB): 16 µg/mL; antibacterial activity (MIC) of AMPC in combinatorial use ([1]; AMPC + 4 μg/mL compound, XDR-TB): 16 µg/mL; antibacterial activity (MIC) of BIPM in combinatorial use ([1]; BIPM + 4 μg/mL compound, XDR-TB): 1 µg/mL; antibacterial activity (MIC) of MEPM in combinatorial use ([1]; MEPM + 4 μg/mL compound, XDR-TB): 1 µg/mL; antibacterial activity (MIC) of TBPM in combinatorial use ([1]; TBPM + 4 μg/mL compound, XDR-TB): 0.5 µg/mL; antibacterial activity (MIC) of ABPC in combinatorial use ([2]; ABPC + 4 μg/mL compound, MDR-TB): 32 µg/mL; antibacterial activity (MIC) of AMPC in combinatorial use ([2]; AMPC + 4 μg/mL compound, MDR-TB): 64 µg/mL; antibacterial activity (MIC) of BIPM in combinatorial use ([2]; BIPM + 4 μg/mL compound, MDR-TB): 4 µg/mL; antibacterial activity (MIC) of MEPM in combinatorial use ([2]; MEPM + 4 μg/mL compound, MDR-TB): 8 µg/mL; antibacterial activity (MIC) of TBPM in combinatorial use ([2]; TBPM + 4 μg/mL compound, MDR-TB): 2 µg/mL
C[C@@H](O)[C@H]1C(=O)N2C(C(=O)O)=C(S[C@@H]3CN[C@H](C(=O)N(C)C)C3)[C@H](C)[C@H]12 [MEPM, meropenem, reference compound]	4 µg/mL (≈ 10.4 µM)	16 µg/mL (≈ 41.7 µM)	
C[C@@H](O)[C@H]1C(=O)N2C(C(=O)O)=C(SC3CN(C4=NCCS4)C3)[C@H](C)[C@H]12 [TBPM, tebipenem, reference compound]	1 µg/mL (≈ 2.61 µM)	4 µg/mL (≈ 10.4 µM)	
